This note sets out measurements from US20120129833A1, “CYCLIC KETOENOLS FOR THERAPY” (BAYER PHARMA AKTIENGESELLSCHAFT, priority 2010, published 2012).

The target in assay [1] is T1, recombinant human ACC1 (acetyl-CoA carboxylase 1) (Homo sapiens, UniProt Q13085).
T1 construct: NM_198834, amino acids 39—end; FLAG (C); made in house; host or cells: baculovirus-transfected insect cells (Hi5)
The assay can be described thus: Human ACC1 enzyme assay (HTRF ADP detection).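 Also: ADP by-product quantified by competitive HTRF immunoassay with europium cryptate anti-ADP antibody and d2-labelled ADP, read after 1 h binding at 22 °C, enzyme near 2.5 ng/µl.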 It is filed as biochemical. The conditions noted are these: 50 μM ATP, 20 μM acetyl-CoA, 15 min pre-incubation, 20 min at 22° C.; read-out: ACC 1 IC50.
Experimental: The basic principle of the assay is the measurement of adenosine diphosphate (ADP), which is formed as a by-product, by means of an HTRF®-based competitive immunoassay (HTRF=Homogeneous Time Resolved Fluorescence).
(§1) The amount of complex of d2-labelled ADP and europium cryptate-labelled anti-ADP antibody was then determined by measuring the resonance energy transfer of europium cryptate to d2.

For assay [2], the target named is T2, ACC2 (acetyl-CoA carboxylase 2) (Homo sapiens, UniProt O00763).
T2 construct: catalogue no; 50201, amino acids 39—end, expressed in baculovirus-transfected Sf9 insect cells; His (C); purchased BPS Bioscience (San Diego, Calif.) 50201; host or cells: baculovirus-transfected Sf9 insect cells
The assay can be described thus: Human ACC2 enzyme assay (HTRF ADP detection). Particulars: 20 μM acetyl-CoA, 15 min pre-incubation, 20 min at 22° C.; read-out: ACC 2 IC50. Format: biochemical. (In general: TR-FRET usually uses a lanthanide donor and a delayed reading to cut background.)
Experimental: The inhibitory activity of the substances of this invention with regard to acetyl-CoA carboxylase 2 (ACC2) was measured using the ACC2 assay described in the paragraphs below. The basic principle of the assay is the measurement of adenosine diphosphate (ADP), which is formed as a by-product, by means of an HTRF®-based competitive immunoassay (HTRF=Homogeneous Time Resolved Fluorescence).
as §1

T2 sequence (O00763 39-2458 limits assumed): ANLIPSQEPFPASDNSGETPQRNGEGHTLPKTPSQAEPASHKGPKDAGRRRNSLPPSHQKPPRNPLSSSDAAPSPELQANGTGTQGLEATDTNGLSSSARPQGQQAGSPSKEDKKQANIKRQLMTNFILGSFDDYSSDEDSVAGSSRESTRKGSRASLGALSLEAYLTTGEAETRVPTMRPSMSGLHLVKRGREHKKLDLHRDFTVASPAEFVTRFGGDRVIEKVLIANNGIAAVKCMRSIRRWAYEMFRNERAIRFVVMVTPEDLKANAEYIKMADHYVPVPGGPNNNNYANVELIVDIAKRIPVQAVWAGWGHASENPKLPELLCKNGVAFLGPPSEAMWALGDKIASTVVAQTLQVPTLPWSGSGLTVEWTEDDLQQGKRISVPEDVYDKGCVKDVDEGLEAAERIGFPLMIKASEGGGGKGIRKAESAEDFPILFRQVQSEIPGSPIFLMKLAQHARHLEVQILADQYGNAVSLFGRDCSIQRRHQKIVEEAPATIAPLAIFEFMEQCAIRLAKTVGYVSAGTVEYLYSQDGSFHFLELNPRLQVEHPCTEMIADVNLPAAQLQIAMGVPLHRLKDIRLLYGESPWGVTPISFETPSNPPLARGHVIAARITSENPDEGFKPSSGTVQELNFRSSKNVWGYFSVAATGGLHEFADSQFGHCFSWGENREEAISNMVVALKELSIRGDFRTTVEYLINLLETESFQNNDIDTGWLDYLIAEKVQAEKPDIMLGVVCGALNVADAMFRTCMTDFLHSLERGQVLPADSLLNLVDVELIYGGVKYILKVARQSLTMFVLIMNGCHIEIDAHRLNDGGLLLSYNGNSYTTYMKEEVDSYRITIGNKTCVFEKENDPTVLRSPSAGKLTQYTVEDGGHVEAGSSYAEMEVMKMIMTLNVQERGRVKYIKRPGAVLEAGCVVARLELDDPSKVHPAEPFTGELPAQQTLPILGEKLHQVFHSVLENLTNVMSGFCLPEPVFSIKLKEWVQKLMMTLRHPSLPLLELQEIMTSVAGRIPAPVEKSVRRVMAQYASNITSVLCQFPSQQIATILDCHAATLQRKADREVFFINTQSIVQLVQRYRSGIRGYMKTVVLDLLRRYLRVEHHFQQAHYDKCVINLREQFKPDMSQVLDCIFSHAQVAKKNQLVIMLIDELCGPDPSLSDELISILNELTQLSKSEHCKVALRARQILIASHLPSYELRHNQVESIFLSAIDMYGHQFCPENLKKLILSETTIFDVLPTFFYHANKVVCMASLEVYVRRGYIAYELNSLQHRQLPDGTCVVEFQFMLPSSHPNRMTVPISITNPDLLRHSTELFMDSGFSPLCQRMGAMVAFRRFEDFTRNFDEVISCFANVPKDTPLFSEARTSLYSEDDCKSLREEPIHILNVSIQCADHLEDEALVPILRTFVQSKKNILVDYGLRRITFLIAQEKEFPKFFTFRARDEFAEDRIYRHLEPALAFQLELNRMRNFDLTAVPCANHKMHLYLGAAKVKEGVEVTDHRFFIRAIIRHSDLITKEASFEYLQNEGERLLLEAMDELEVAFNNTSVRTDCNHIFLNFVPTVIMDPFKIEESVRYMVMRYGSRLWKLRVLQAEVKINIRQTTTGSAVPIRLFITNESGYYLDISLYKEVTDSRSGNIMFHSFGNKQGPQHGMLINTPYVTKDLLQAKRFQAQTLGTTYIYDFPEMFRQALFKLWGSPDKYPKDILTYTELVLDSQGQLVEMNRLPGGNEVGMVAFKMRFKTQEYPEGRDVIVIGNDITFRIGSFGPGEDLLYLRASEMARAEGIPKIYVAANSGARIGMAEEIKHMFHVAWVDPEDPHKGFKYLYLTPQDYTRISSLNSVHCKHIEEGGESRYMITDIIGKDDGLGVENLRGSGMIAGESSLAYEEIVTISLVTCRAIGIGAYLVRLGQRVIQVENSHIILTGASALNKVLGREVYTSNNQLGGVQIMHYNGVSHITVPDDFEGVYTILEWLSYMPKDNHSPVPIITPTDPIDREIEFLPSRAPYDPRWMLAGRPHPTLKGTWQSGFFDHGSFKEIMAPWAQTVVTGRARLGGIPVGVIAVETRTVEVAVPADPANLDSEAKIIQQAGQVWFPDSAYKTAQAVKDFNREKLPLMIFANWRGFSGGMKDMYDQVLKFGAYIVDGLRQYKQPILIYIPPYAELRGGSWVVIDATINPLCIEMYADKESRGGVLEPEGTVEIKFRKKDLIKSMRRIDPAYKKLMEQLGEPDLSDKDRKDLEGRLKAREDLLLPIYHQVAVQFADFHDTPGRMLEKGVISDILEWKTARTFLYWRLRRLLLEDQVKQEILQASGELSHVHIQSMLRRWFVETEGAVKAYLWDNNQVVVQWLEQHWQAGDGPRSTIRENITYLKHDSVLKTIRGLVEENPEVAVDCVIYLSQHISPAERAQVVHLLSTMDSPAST

In the case of `Cc1ccc(-c2ccc(Cl)cc2)cc1C1C(=O)N2CC(C)(F)CN2C1=O` [Example 8-12, 2-(4′-chloro-4-methylbiphenyl-3-yl)-6-fluoro-6-methyldihydro-1H,5H-pyrazolo[1,2-a]pyrazole-1,3(2H)-dione], the IC50 in assay [1] is 0.587 µM; in assay [2], greater than 20 µM.
As to `CC1(F)CN2C(=O)C(c3cc(-c4ccc(Cl)cc4)ccc3Cl)C(=O)N2C1` [Example 8-13, 2-(4,4′-dichlorobiphenyl-3-yl)-6-fluoro-6-methyldihydro-1H,5H-pyrazolo[1,2-a]pyrazole-1,3(2H)-dione], the IC50 in assay [1] is 0.64 µM; in assay [2], greater than 20 µM.
Regarding `Cc1ccc(-c2ccc(Cl)cc2)cc1C1C(=O)N(C)N(C)C1=O` [Example 8-14, 4-(4′-chloro-4-methylbiphenyl-3-yl)-1,2-dimethyl-1H-pyrazole-3,5(2H,4H)-dione], the half-maximal inhibitory concentration (IC50) is 2.4 µM in assay [1] and greater than 20 µM in assay [2].
In the case of `CN1C(=O)C(c2cc(-c3ccc(Cl)cc3)ccc2Cl)C(=O)N1C` [Example 8-15, 4-(4,4′-dichlorobiphenyl-3-yl)-1,2-dimethyl-1H-pyrazole-3,5(2H,4H)-dione], the IC50 was 1.97 µM in assay [1] and greater than 20 µM in assay [2].
Taken in the same sequence, the figures for `Cc1ccc(-c2ccc(Cl)cc2)cc1C1C(=O)N2C3CCC(C3)N2C1=O` (stereo not shown) [Example 8-16, 2-(4′-chloro-4-methylbiphenyl-3-yl)tetrahydro-1H-5,8-methanopyrazolo[1,2-a]pyridazine-1,3(2H)-dione] were 0.662 µM and greater than 20 µM.
On the same counts, the results for `O=C1C(c2cc(-c3ccc(Cl)cc3)ccc2Cl)C(=O)N2C3CCC(C3)N12` (stereo not shown) [Example 8-17, 2-(4,4′-dichlorobiphenyl-3-yl)tetrahydro-1H-5,8-methanopyrazolo[1,2-a]pyridazine-1,3(2H)-dione] are 0.913 µM and greater than 20 µM.
On to `Cc1ccc(-c2ccc(Cl)cc2)cc1C1=C(O)CC(C)(C)NC1=O` [Example 9-1, 3-(4′-chloro-4-methylbiphenyl-3-yl)-4-hydroxy-6,6-dimethyl-5,6-dihydropyridin-2(1H)-one], for which the IC50 is 0.319 µM in assay [1] and greater than 20 µM in assay [2].
Taken in the same sequence, the figures for `Cc1ccc(-c2ccc(Cl)cc2)cc1C1=C(O)C(C)(C)CNC1=O` [Example 9-2, 3-(4′-chloro-4-methylbiphenyl-3-yl)-4-hydroxy-5,5-dimethyl-5,6-dihydropyridin-2(1H)-one] were 0.806 µM and 9.08 µM.
On the same counts, the results for `Cc1ccc(-c2ccc(Cl)cc2)cc1C1=C(O)C2(CCCCC2)CNC1=O` [Example 9-3, 4-(4′-chloro-4-methylbiphenyl-3-yl)-5-hydroxy-2-azaspiro[5.5]undec-4-en-3-one] are 1.06 µM and 4.28 µM.
On the same counts, the results for `Cc1ccc(-c2ccc(Cl)cc2)cc1C1=C(O)CC(C)(C)N(C)C1=O` [Example 9-4, 3-(4′-chloro-4-methylbiphenyl-3-yl)-4-hydroxy-1,6,6-trimethyl-5,6-dihydropyridin-2(1H)-one] are 5.38 µM and greater than 20 µM.
Take `Cc1ccc(-c2ccc(Cl)cc2)cc1-c1c(O)c2ccccc2[nH]c1=O` [Example 9-5, 3-(4′-chloro-4-methylbiphenyl-3-yl)-4-hydroxyquinolin-2(1H)-one]: the IC50 in assay [1] was 0.625 µM; in assay [2] it was greater than 20 µM.
`Cc1ccc(-c2ccc(C(F)(F)F)cc2)cc1-c1c(O)c2ccc(Cl)cc2[nH]c1=O` [Example 9-6, 7-chloro-4-hydroxy-3-[4-methyl-4′-(trifluoromethyl)biphenyl-3-yl]quinolin-2(1H)-one]: the IC50 in assay [1] turned out to be 1.09 µM; in assay [2], 18.9 µM.
Turning to `Cc1ccc(-c2ccc(Cl)cc2)cc1-c1c(O)c2ccc(F)cc2[nH]c1=O` [Example 9-8, 3-(4′-chloro-4-methylbiphenyl-3-yl)-7-fluoro-4-hydroxyquinolin-2(1H)-one], the IC50 was 0.418 µM in assay [1] and greater than 20 µM in assay [2].
Turning to `Cc1ccc(-c2ccc(F)cc2)cc1-c1c(O)c2ccc(F)cc2[nH]c1=O` [Example 9-9, 7-fluoro-3-(4′-fluoro-4-methylbiphenyl-3-yl)-4-hydroxyquinolin-2(1H)-one], the IC50 in assay [1] was 0.863 µM; in assay [2], greater than 20 µM.
For the compound `Cc1ccc(-c2ccc(C(F)(F)F)cc2)cc1-c1c(O)c2ccc(F)cc2[nH]c1=O` [Example 9-10, 7-fluoro-4-hydroxy-3-[4-methyl-4′-(trifluoromethyl)biphenyl-3-yl]quinolin-2(1H)-one], the IC50 was 1.69 µM in assay [1] and greater than 20 µM in assay [2].
Taken in the same sequence, the figures for `Cc1ccc(-c2ccc(Cl)cc2)cc1-c1c(O)c2ccc(Cl)cc2[nH]c1=O` [Example 9-11, 7-chloro-3-(4′-chloro-4-methylbiphenyl-3-yl)-4-hydroxyquinolin-2(1H)-one] were 0.42 µM and 4.12 µM.
Taken in the same sequence, the figures for `O=c1[nH]c2cc(Cl)ccc2c(O)c1-c1cc(-c2ccc(Cl)cc2)ccc1Cl` [Example 9-13, 7-chloro-3-(4,4′-dichlorobiphenyl-3-yl)-4-hydroxyquinolin-2(1H)-one] were 0.329 µM and 5.56 µM.
Take `Cc1ccc(-c2ccc(Cl)cc2)cc1C1=C(O)C(C)(C)C(C)(C)NC1=O` [Example 9-14, 3-(4′-chloro-4-methylbiphenyl-3-yl)-4-hydroxy-5,5,6,6-tetramethyl-5,6-dihydropyridin-2(1H)-one]: the IC50 is 1.64 µM in assay [1] and 5.62 µM in assay [2].
Taken in the same sequence, the figures for `CC1(C)OC(=O)C(c2cc(-c3ccc(Cl)cc3)ccc2Cl)=C(O)C1(C)C` [Example 10-1, 3-(4,4′-dichlorobiphenyl-3-yl)-4-hydroxy-5,5,6,6-tetramethyl-5,6-dihydro-2H-pyran-2-one] were 1.37 µM and greater than 20 µM.
With `Cc1ccc(-c2ccc(Cl)cc2)cc1C1=C(O)C(C)(C)C(C)(C)OC1=O` [Example 10-2, 3-(4′-chloro-4-methylbiphenyl-3-yl)-4-hydroxy-5,5,6,6-tetramethyl-5,6-dihydro-2H-pyran-2-one], the IC50 in assay [1] is 0.586 µM; in assay [2], greater than 20 µM.
In the case of `Cc1ccc(-c2ccc(Cl)cc2)cc1C1C(=O)N(C)OC(C)(C)C1=O` (stereo not shown) [Example 11-1, 4-(4′-chloro-4-methylbiphenyl-3-yl)-2,6,6-trimethyl-1,2-oxazinane-3,5-dione], the IC50 in assay [1] is 4 µM; in assay [2] it was greater than 20 µM.
For the compound `CCc1cc(-c2ccccc2)cc(Cl)c1C1C(=O)N2CCOCCN2C1=O` [Example C-1, reference compound], the IC50 in assay [1] and in assay [2] was greater than 20 µM each time.
As for `COC1CCC2(CC1)NC(=O)C(c1c(C)cc(-c3ccc(Cl)cc3)cc1C)=C2O` (stereo not shown) [Example C-2, reference compound], the IC50 in assay [1] and in assay [2] was greater than 20 µM throughout.
With `COC1CCC2(CC1)NC(=O)C(c1c(C)cc(OC(F)(F)F)cc1Cl)=C2O` (stereo not shown) [Example C-3, reference compound], the IC50 in assay [1] and in assay [2] was greater than 20 µM each time.
Consider `CCc1cc(C)cc(Br)c1C1=C(O)C2(CCCCC2)OC1=O` [Example C-4, reference compound], for which the IC50 in assay [1] is 5.4 µM; in assay [2], greater than 20 µM.
Turning to “(5r,8r)-3-(4′-chloro-2,4-dimethylbiphenyl-3-yl)-4-hydroxy-8-methoxy-8-methyl-1-azaspiro[4.5]dec-3-en-2-one [Example 1-87]”, the IC50 amounted to 0.54 µM in assay [1] and 7.3 µM in assay [2].

By IC50 is commonly meant the concentration needed to halve the response being measured.
